A short description of this data set: Isomerization reaction rate under irradiation with light (365 nm, high-pressure mercury lamp) of 1% by weight aqueous solutions. The class given is physicochemical. To be noted: 1% by weight aqueous solution. The protocol: The reaction rates of the isomerization reaction were compared for the TZOX and TZOX-Na salt synthesized in Example 1. More specifically, 1% by weight aqueous solutions of each were prepared followed by irradiating these aqueous solutions with light (wavelength: 365 nm) for 3 hours using a high-pressure mercury lamp. A portion of the aqueous solutions were sampled prior to the start of irradiation with light (irradiation time: 0 hours) and at 1, 2 and 3 hours after the start of irradiation with light followed by an investigation of the abundance ratios of the (E) form and (Z) form. Although the abundance ratio of the (Z) form in the case of TZOX-Na prior to irradiation with light was only 0.33%, it increased to 34% after 1 hour had elapsed since the start of irradiation and remained essentially unchanged after that point. In other words, it was determined that the TZOX-Na salt reaches equilibrium as a result of being irradiated with light for 1 hour, and that the isomerization rate thereof is extremely fast. In contrast, in the case of TZOX, the abundance ratio of the (Z) form only finally reached 35% after 3 hours had elapsed since the start of irradiation, and it was determined that at least 2 hours are required to reach equilibrium.

The mark [1] stands for this setting: irradiation time 0 hours (prior to irradiation).

Each structure is given as a SMILES string. “And” between values parts separate entries of the source, which are not always exact repeats. Equal entries are not always repeated.

`Cn1nnnc1C(=NO)c1ccccc1` [TZOX, (1-methyl-1H-tetrazol-5-yl)(phenyl)methanoneoxime]: the “Irradiation time required to reach equilibrium of (E)/(Z) isomerization” value is “at least 2 hour”. Moreover, under setting [1], the “Abundance Ratio (%) (E) form” value amounted to 99.52% and the “Abundance Ratio (%) (Z) form” value was found to be 0.45%. Also, where the note is “irradiation time 1 hour”, the “Abundance Ratio (%) (E) form” value was determined as 83.99% and the “Abundance Ratio (%) (Z) form” value is recorded as 13.7%. Moreover, for the setting “irradiation time 2 hours”, the “Abundance Ratio (%) (E) form” value is reported as 70.39% and the “Abundance Ratio (%) (Z) form” value is listed as 28.13%. Moreover, for the setting “irradiation time 3 hours”, the “Abundance Ratio (%) (E) form” value is given as 62.8%; the “Abundance Ratio (%) (Z) form” value is 35% and 35.3%.
On to `Cn1nnnc1C(=N[O-])c1ccccc1.[Na+]` [TZOX-Na], for which the “Irradiation time required to reach equilibrium of (E)/(Z) isomerization” value amounted to 1 h. Moreover, under setting [1], the “Abundance Ratio (%) (E) form” value worked out at 99.43% and the “Abundance Ratio (%) (Z) form” value is reported as 0.33%. Where the note is “irradiation time 1 hour”, the “Abundance Ratio (%) (E) form” value was determined as 64.0% and the “Abundance Ratio (%) (Z) form” value turned out to be 34%. For the same molecule, under “irradiation time 2 hours”, the “Abundance Ratio (%) (E) form” value is 63.0% and the “Abundance Ratio (%) (Z) form” value was 33.9%. Where the note is “irradiation time 3 hours”, the “Abundance Ratio (%) (E) form” value was 66.6% and the “Abundance Ratio (%) (Z) form” value is 32.3%.

(Values after patent US9233984B2, “Compound, method for producing compound, and method for purifying compound” (Nippon Soda Co., Ltd., priority 2012, dated 2016).)
